Measurements from paper PMC9718554, “Discovery of a fragment hit compound targeting D-Ala:D-Ala ligase of bacterial peptidoglycan biosynthesis” (Journal of Enzyme Inhibition and Medicinal Chemistry, 2022).

How the values were obtained:
[1] = test system: S. aureus ATCC 29213; assay: MIC by broth microdilution; format: cell-based
Protocol: (§1) The antibacterial activities of 3 were determined according to the European Committee for […] Susceptibility Testing recommendations and Clinical Laboratory Standards Institute protocol. Compound was tested against reference strains of E. coli and Staphylococcus aureus and against two mutant E. coli strains. E. coli D22 bears a mutation in the LpxC gene that increases membrane permeability, whereas E. coli N43 is an AcrA knockout strain (knockout of the cell membrane pump). […] The most plausible reason is the low on target activity of the hit fragment, however, also the poor penetration into the bacterial cell or efflux pumps effect cannot be ruled out. Although the lack of antibacterial activity is a limitation, hit compound 3 represents a fragment-sized starting point for the development of new compounds with increased DdlB inhibitory potency as well as antibacterial activity.
(§2) Minimum inhibitory concentrations (MICs) for 3 were determined by broth microdilution in Cation-adjusted Mueller-Hinton broth (MH) with TES, TREK Diagnostic Systems Ltd. against S. aureus ATCC 29213, E. coli ATCC 25922, E. coli N43 and E. coli D22. All of the experiments were performed in duplicate in 96-well plate format according to CLSI guidelines and European Committee for Antimicrobial Susceptibility Testing recommendations. The bacterial suspension of a specific bacterial strain was diluted with MH broth to obtain a final inoculum of 5 × 10^5 CFU/mL in the assay. Compound 3 dissolved in DMSO and inoculum were mixed together and incubated for 20 h at 35 °C. After incubation, the minimal inhibitory concentration (MIC) values were determined by visual inspection as the lowest dilution of compounds showing no turbidity. The MICs were determined against S. aureus (ATCC 29213), E. coli (ATCC 25922), E. coli N43, and E. coli D22 bacterial strains. D-Cycloserine was used as a positive control.

[2] = test system: E. coli N43; assay: MIC by broth microdilution; format: cell-based; conditions: Escherichia coli, N43, 20 h
Protocol: as §1, §2

[3] = test system: E. coli D22; assay: MIC by broth microdilution; format: cell-based; conditions: Escherichia coli, D22, 20 h
Protocol: as §1, §2

[4] = test system: E. coli ATCC 25922; assay: MIC by broth microdilution; format: cell-based
Protocol: as §1, §2

[5] = target: E. coli MurA enzyme (UDP-N-acetylglucosamine enolpyruvyl transferase) (Escherichia coli, UniProt P0A749); assay: MurA inhibition assay (malachite green, deselection); conditions: read-out: MurA inhibition, RA (Residual Activity)
E. coli MurA enzyme (UDP-N-acetylglucosamine enolpyruvyl transferase), sequence (P0A749 whole entry): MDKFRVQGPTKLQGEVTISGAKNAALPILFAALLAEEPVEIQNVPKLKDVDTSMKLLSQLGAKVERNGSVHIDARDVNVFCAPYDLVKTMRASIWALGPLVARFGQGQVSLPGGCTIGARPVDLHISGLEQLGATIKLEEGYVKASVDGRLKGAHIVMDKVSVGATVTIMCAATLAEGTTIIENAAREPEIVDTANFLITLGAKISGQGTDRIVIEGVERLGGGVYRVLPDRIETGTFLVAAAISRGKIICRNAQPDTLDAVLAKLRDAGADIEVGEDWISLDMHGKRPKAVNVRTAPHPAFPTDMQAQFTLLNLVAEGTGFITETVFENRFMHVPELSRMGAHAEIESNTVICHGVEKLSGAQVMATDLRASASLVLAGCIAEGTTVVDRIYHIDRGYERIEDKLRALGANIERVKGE
Protocol: Inhibition of the enzyme was determined using an end-point malachite green assay by detecting the orthophosphate formed during the enzymatic reaction. […] The final DMSO concentration was 5%. […] A parallel experiment without the enzyme was performed to detect insoluble compounds under the assay conditions and subtracted from each measurement. All experiments were performed in duplicates. RAs were calculated with respect to blank experiments without tested compounds and with 5% DMSO.

[6] = target: T1, DdlB from E. coli (Escherichia coli, UniProt P07862); assay: Steady-state kinetics, Ki determination against DdlB (ATP varied); format: biochemical
T1 construct: made in house; host or cells: E. coli
Protocol: Binding of 3 to DdlB was confirmed by an orthogonal biophysical assay, surface plasmon resonance (SPR). The protein was covalently attached to the surface of the CM5 chip (∼7700 response units), and the ligand was titrated across the surface (Figure 2(B)). […] Steady-state kinetics were performed to gain mechanistic insight into the inhibition of compound 3 (Supplementary Figure S3 and Table S6).
For compound 3, Ki values were determined against DdlB from E. coli. Ki determinations were performed under similar conditions as described for DdlB inhibition assay, where different concentration of one substrate and fixed concentration of the other were used. The concentration of ATP (50, 100, 200, 300 and 500 µM) was varied at fixed concentration of D-Ala (700 µM). The concentrations of compound 3 were 0, 25, 50, 100, 250, 500, and 1000 µM. After 20 min of incubation, […] of Biomol® green reagent was added, and absorbance was read at 650 nm after 5 min. Initial data were fitted to competitive, (v/V = [S]/{KM(1 + [I]/KI)+ [S]}), non-competitive (v/V = [S]/{(1 + [I]/KI)(KM+ [S])}), uncompetitive (v/V = [S]/{KM+ [S](1 + [I]/KI)}) inhibition models in which v is observed reaction rate, V is the maximum rate, KM is the Michaelis constant, using SigmaPlot 12.0 software. The best fit was taken as the one having the highest R^2, the lowest standard error and the narrowest 95% confidence interval in each parameter (see Supplementary Table S6).

[7] = target: T2, E. coli DdlB enzyme (D-alanine:D-alanine ligase) (Escherichia coli, UniProt P07862); assay: biochemical; conditions: 700 μM D-Ala, 100 μM ATP; read-out: DdlB inhibition IC50
T2 construct: made in house; host or cells: E. coli

[8] = target: DdlB (Escherichia coli, UniProt P07862); assay: Surface plasmon resonance, immobilised DdlB; format: binding, E. coli; conditions: steady-state affinity model, three titrations, 25 °C; read-out: apparent equilibrium dissociation constant KD
Protocol: Figure 2. Fragment hit 3 targeting DdlB. (A) Dose–response inhibition of DdlB for 3. (B) SPR analysis of 3 with the immobilised DdlB. 3 was injected across DdlB in serial dilutions ranging from 78.125 to 5000 µM for 40 s at a flow rate of 30 μL/min, and dissociation was followed for 40 s. […] (C) Data were fitted to the steady-state affinity model to obtain the apparent equilibrium dissociation constant (KD). KD values are the mean ± standard deviation of three titrations. (D) ATP (blue sticks) and D-Ala-D-Ala (white sticks) binding sites of DdlB (PDB ID: 4C5C) with the co-crystallised ligands. (E) Computational docking of 3 to the ATP-binding site using extra-precision Glide (blue sticks) and QM-Polarized Ligand Docking (orange sticks) (PDB ID: 4C5C).
Binding of 3 to DdlB was confirmed by an orthogonal biophysical assay, surface plasmon resonance (SPR). […]
The SPR measurements were performed at the Infrastructural Centre for Analysis of Molecular Interactions at the Department of Biology, University of Ljubljana on a Biacore T200 (GE Healthcare) at 25 °C. […] The data were analysed with the Biacore T200 Evaluation Software and KD was determined by fitting the data to the steady state affinity model. The average KDs and standard deviations were determined from three titrations of 3.

Cc1cccc(-c2ccnc3c(C(=O)O)cnn23)c1 [Compound 3, 7-(m-Tolyl)pyrazolo[1,5-a]pyrimidine-3-carboxylic acid]
antibacterial activity (in words) ([1]; S. aureus): no antibacterial activity
MIC ([1]; Staphylococcus aureus, ATCC29213, 20 h): > 128 µg/mL
MIC [2]: > 128 µg/mL
MIC [3]: > 128 µg/mL
antibacterial activity (in words) ([4]; E. coli): no antibacterial activity
MIC ([4]; Escherichia coli, ATCC25922, 20 h): > 128 µg/mL
remaining activity at 5000 µM [5]: 64%
Ki ([6]; Competitive (full) model, best fit, ATP varied, D-Ala 700 µM): 20.7 ± 4.5 µM
Ki ([6]; Competitive (partial) model): 20.7 ± 5.2 µM
Ki ([6]; Noncompetitive (full) model): 221 ± 21.7 µM
inhibition mechanism ([6]; with respect to ATP): competitive inhibitor with respect to ATP
IC50 [7]: 168 µM
Kd [8]: 3200 µM
